Assay results taken from publication PMC8073686, “Characterization of Subtype Selective Cannabinoid CB2 Receptor Agonists as Potential Anti-Inflammatory Agents” (Pharmaceuticals, 2021).

System: IL-2 mRNA in Jurkat cells
Test: PHA/PMA-induced IL-2 mRNA in Jurkat cells (RT-PCR)
Assay type: cell-based, human
Description: Activation of CB2 is known to have anti-inflammatory effects. There are some studies reporting that CB2 agonists decrease cytokine production in immune cells. We also reported that the cannabinoid receptor agonist CP55,940 and ABK5 inhibit cytokine production in the human T cell lines Jurkat and MOLT-4 [24]. Since ABK5-1 and 5-2 were confirmed to be CB2-subtype selective agonists, we were interested to determine whether these compounds also have anti-inflammatory effects. Note, although ABK5-6 had marginally better binding affinity to CB2, it bound to CB1 […] (i.e., micromolar range). Therefore ABK5-6 was not selected for further evaluations. We first tested the change of IL-2 and TNF-α mRNA levels in Jurkat cells. […] To test if these mRNA changes are reflected in the protein levels of cytokines, the IL-2 and TNF-α concentration in the cell culture medium were measured by ELISA. […] Unlike ABK5-1, at 3 h of treatment, the lowest concentration of ABK5-2 used caused the IL-2 mRNA decrease. […] On the other hand, TNF-α mRNA decreased by 45% at 10 μM ABK5-2 after 3 h of treatment (Figure 4E, black columns). […] These mRNA level changes were similar to that of ABK5-1, except ABK5-2 caused a stronger inhibitory effect on expression of TNF-α mRNA. […] Consistent with the mRNA levels, the inhibitory effect of ABK5-2 on TNF-α production was stronger than that of ABK5-1.
Figure 4 Effect of ABK5-1 and ABK5-2 on phytohemagglutinin (PHA)/phorbol 12-myristate 13-acetate (PMA)-induced cytokine production in T cells. Jurkat cells were pretreated with DMSO (<0.1%; indicated as 0 μM) or various concentrations of ABK5-1 (A–D) or ABK5-2 (E–H) and stimulated with PHA and PMA. IL-2 and TNF-α mRNA levels were determined by real-time PCR (RT-PCR) after ABK5-1 treatment and (A) 3 h and (B) 24 h of PHA/PMA (phytohemagglutinin/phorbol 12-myristate 13-acetate) stimulation. Protein levels of (C) IL-2 and (D) TNF-α were also examined after 24 h of stimulation. IL-2 and TNF-α mRNA were also examined after ABK5-2 treatment and (E) 3 h and (F) 24 h of stimulation, and protein levels of (G) IL-2 and (H) TNF-α were measured after 24 h stimulation. Results are indicated as the mean ± S.D. of three independent assays performed in triplicate for each concentration. One-way ANOVA and Dunnett’s post-hoc test were used and * p < 0.05, ** p < 0.01, *** p < 0.005, **** p < 0.0001 (versus reference).
For cytokine analysis, 0.75 × 10^6 Jurkat cells per well were seeded in 12-well cell culture plates and treated with compounds at a concentration between 0.1 to 10 μM and incubated for 30 min at 37 °C. Then cells were stimulated for cytokine production with PHA (1 μg/mL) and PMA (12.5 ng/mL), for 3 and 24 h. After stimulation, cells were harvested for RNA analysis and the culture supernatant was used for measurement of IL-2 and TNF-α concentrations by human IL-2 and TNF-α ELISA kits (Thermo Fisher Scientific; Waltham, MA, USA) according to the manufacturer instructions.
Jurkat cells were lysed and total RNA was extracted using TRIzol Reagent (Life Technologies, Carlsbad, CA, USA) followed by reverse transcription by a High-Capacity cDNA Reverse Transcription kit (Life Technologies, Carlsbad, CA, USA) according to the manufacturer’s instructions. Quantitative real-time PCR was performed using an Applied Biosystems 7500 Fast Real-Time PCR system in a 10 μL reaction volume containing 2 μL diluted cDNA and 0.5 μM each of forward and reverse primers, and PowerUp SYBR Green Master Mix (Life Technologies, Carlsbad, CA, USA). Primers used in the reaction were as follows: human 36B4 forward, 5′-[…]-3′, and human 36B4 reverse, 5′-[…]-3′, and human IL-2 forward, 5′-[…]-3′, and human IL-2 reverse, 5′-[…]-3′, and human TNF-α forward, 5′-[…]′, human TNF-α reverse, 5′-[…]-3′. The PCR cycles are as follows: 50 °C for 2 min, 95 °C for 2 min, 40 cycles of 95 °C for 3 sec and 60 °C for 30 s. […]

[1] = 0.1 μM, 3 h PHA/PMA stimulation

`CCOC(=O)c1ccccc1NC(=O)CN(c1ccc(C)cc1C)S(=O)(=O)c1ccccc1` [ABK5-1] was tested, and the “decrease of IL-2 mRNA” value [1] was “did not show a significant decrease”, the “decrease of IL-2 mRNA” value (1 μM, 3 h PHA/PMA stimulation) was “about 17%” and the “decrease of IL-2 mRNA” value (1 μM, 24 h) was “about 14%”. The “decrease of IL-2 mRNA” value (10 μM, 3 h PHA/PMA stimulation) was about 46% and the “decrease of IL-2 mRNA” value (10 μM, 24 h) was about 67%.
For `CCOC(=O)c1ccccc1NC(=O)CN(c1c(C)cccc1C)S(=O)(=O)c1ccccc1` [ABK5-2], the “decrease of IL-2 mRNA” value [1] was “about 20%”, the “decrease of IL-2 mRNA” value (1 μM, 3 h PHA/PMA stimulation) was about 15% and the “decrease of IL-2 mRNA” value (10 μM, 3 h PHA/PMA stimulation) was about 46%. For the same compound, the “decrease of IL-2 mRNA” value (10 μM, 24 h) was “about 65%”.
